According to patent publication US9566312B2, “Cyclic peptides and use as medicines” (priority 2012, dated 2017):
Starred links: 1 amine or outer side, 2 acyl side, 3 side chain; linkers in the order of their positions; H or OH if unused. Non-standard residues stand in square brackets, D forms with d. Residues, ends and D or L forms follow the SMILES beside them. X42 = C[C@H](CCCOC(=O)N(C)C1CCN(C)CC1)[C@@H](C(=O)[*:2])N(C)[*:1]; X44 = CC(C)N1CCN(C(=O)COC[C@@H](C)[C@@H](C(=O)[*:2])N(C)[*:1])CC1; X66 = C[C@H](COCC(=O)N1CCN(C)CC1)[C@@H](C(=O)[*:2])N(C)[*:1]; X82 = C[C@H](COCCN1CCOC[C@@H]1C)[C@@H](C(=O)[*:2])N(C)[*:1]; X36 = C[C@H](COCCN(C)CC(F)(F)F)[C@@H](C(=O)[*:2])N(C)[*:1]; X40 = C[C@H](COCC(=O)N1CCNCC1)[C@@H](C(=O)[*:2])N(C)[*:1]; X51 = C[C@H](CN1CCC2(COC2)C1)[C@@H](C(=O)[*:2])N(C)[*:1]; X52 = C[C@H](CCC(=O)N1CCOCC1)[C@@H](C(=O)[*:2])N(C)[*:1]; MeBmt = C/C=C/C[C@@H](C)[C@@H](O)[C@H](NC)C(=O)O; NMeL = CN[C@@H](CC(C)C)C(=O)O; NMeV = CN[C@H](C(=O)O)C(C)C; dNMeA = CN[C@H](C)C(=O)O; Abu = CC[C@H](N)C(=O)O

Key:
cyclophilin A (CypA) = cyclophilin A (CypA) (Homo sapiens (Human), UniProt P62937); assay: Inhibitor binding to cyclophilin proteins by SPR, CypA; set-up: unit not given here; details: 1:1 binding model
Chain of cyclophilin A (CypA) (P62937 whole entry): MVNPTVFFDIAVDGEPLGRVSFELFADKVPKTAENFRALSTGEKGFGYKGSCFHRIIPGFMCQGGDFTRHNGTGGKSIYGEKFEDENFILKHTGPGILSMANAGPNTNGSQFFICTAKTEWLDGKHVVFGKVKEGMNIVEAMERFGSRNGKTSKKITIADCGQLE

cyclophilin B (CypB) = cyclophilin B (CypB) (Homo sapiens (Human), UniProt P23284); assay: Inhibitor binding to cyclophilin proteins by SPR, CypB; set-up: unit not given here; details: 1:1 binding model
Chain of cyclophilin B (CypB) (P23284 34-216): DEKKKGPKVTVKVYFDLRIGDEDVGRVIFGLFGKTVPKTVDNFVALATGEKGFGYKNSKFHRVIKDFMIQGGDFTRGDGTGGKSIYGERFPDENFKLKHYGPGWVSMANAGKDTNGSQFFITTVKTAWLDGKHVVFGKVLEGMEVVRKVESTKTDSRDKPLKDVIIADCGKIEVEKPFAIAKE
Protocol: (§1) Method 1: Measuring Inhibitor Binding to Cyclophilin Proteins
(§2) Binding of inhibitors to expressed cyclophilins was determined using surface plasmon resonance (SPR) experiments. Briefly, avi-tagged cyclophilin proteins with mono-biotinylation were immobilized onto a Biotin CAPture chip (GE Healthcare, cat. #28920234). SPR experiments were carried out on an upgraded Biacore T200 system using a running buffer containing the inhibitor, 10 mM HEPES, pH 7.4, 150 mM NaCl, 0.05% P20, and 3% DMSO. Single-cycle kinetics measurements were used to study the interactions between cyclophilin inhibitors and different cyclophlins. Accordingly, compound at various concentrations was injected to the flow cells with a contact time of 1 min each at a flow rate of 50 μL/min. The final dissociation phase lasts for 10 min following the sample injection. Data was analyzed using Biacore T200 Evaluation Software Version 1.0 and a 1:1 binding model was applied to fit the data to obtain kon, koff, and KD.

CypF = CypF (Homo sapiens (Human), UniProt P30405); assay: Inhibitor binding to cyclophilin proteins by SPR, CypF; details: 1:1 binding model
Chain of CypF (P30405 30-207): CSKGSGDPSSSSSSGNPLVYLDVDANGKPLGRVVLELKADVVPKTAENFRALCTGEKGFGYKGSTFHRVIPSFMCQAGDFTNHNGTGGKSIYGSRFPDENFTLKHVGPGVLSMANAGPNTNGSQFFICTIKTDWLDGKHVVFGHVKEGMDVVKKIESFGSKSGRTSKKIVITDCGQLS
Protocol: as §1, §2

[1] = test system: genotype 1b subgenomic HCV replicon in Huh7.5 cells; type: cell-based, hepatitis C virus; details: genotype 1b replicon, 72 h incubation; read-out: RPLN-1b IC50
Protocol: Method 2: Measuring Inhibitory Effects in a HCV Replicon System
Susceptibility to compounds was analyzed in Huh7.5 cells containing genotype 1a or 1b subgenomic HCV replicons co-expressing a luciferase reporter gene. The original replicons, pFK389lucubineo_3_3′_ET and pH/SG-Neo(L+I), were licensed from ReBlicon GmbH (Germany) and Apath LLC (Saint Louis, Mo.), respectively. The firefly reporter gen was replaced by renilla luciferase reporter gene using standard molecular biology techniques as follows.
Generation of genotype 1b subgenomic replicon: The renilla […]-neomycin phosphotransferase cassette was amplified from pF9 cytomegalovirus (CMV) hRluc-Neo Flexi(R) (Promega) by PCR using Accuprime super mix II (Invitrogen) and a primer set of Ascl hRlucNeo Fwd and NotI hRluc Rev. These two primers have the following sequences and introduce restriction sites for subsequent cloning: Ascl hRlucNeo Fwd, 5 […] 3(Ascl site underlined) (SEQ. ID No. 1), and NotI hRluc Rev, 5[…] 3(NotI site underlined) (SEQ ID No. 2). The amplification product was subcloned into pCR2.1-TOPO (Invitrogen). The resulting plasmid was digested with Ascl and NotI, and the excised fragment (hRluc-Neo) was ligated with the Roche Quick Ligation Kit (Roche) into pFK1389lucubineo_3_3′_ET digested with the same enzymes.
The assay medium for both, luciferase reporter HCV replicon and cytotoxicity assays contains phenol red-free DMEM and lacks G418. […] Luciferase activity of compound treated cells is measured relative to DMSO treated cells after 72 h incubation using Renilla-Glo™ Luciferase Assay (Promega). Cytotoxicity (CC50) is analyzed using Cell Titer-Glo™ (Promega).

[2] = test system: peripheral blood mononuclear cells (PBMC); assay: Anti-proliferative or immunosuppressive activity, BrdU incorporation in PHA-stimulated PBMC; type: cell-based; details: PHA 3 μg/ml, 60 hour compound treatment; read-out: EMV PBMC IC50
Protocol: Method 3: Measuring Anti-Proliferative or Immunosuppressive Activity
The potential anti-proliferative activity of compounds on T-cells was analyzed based on the amount of bromodesoxy uridine (BrdU) incorporated into DNA of fresh peripheral blood mononuclear cells (PBMC) using the BrdU ELISA kit (Roche). The assay is performed in 96-well plate format with 30,000 PBMCs seeded per well in X-VIVO 15 medium (Lonza). T-cell proliferation was stimulated by addition of 3 μg/ml phytohemagglutinin (PHA) in PBMCs obtained from two donors.

[3] = molecular target: organic anion transporting polypeptide 1B1 (OATP1B1) (Homo sapiens (Human), UniProt Q9Y6L6); assay: OATP assay in CHO-OATP1B1 cells;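 also: inhibition of probe substrate uptake into the cells, ten minutes exposure, accumulated substrate read by fluorescence once cells were lysed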
Chain of organic anion transporting polypeptide 1B1 (OATP1B1) (Q9Y6L6 whole entry): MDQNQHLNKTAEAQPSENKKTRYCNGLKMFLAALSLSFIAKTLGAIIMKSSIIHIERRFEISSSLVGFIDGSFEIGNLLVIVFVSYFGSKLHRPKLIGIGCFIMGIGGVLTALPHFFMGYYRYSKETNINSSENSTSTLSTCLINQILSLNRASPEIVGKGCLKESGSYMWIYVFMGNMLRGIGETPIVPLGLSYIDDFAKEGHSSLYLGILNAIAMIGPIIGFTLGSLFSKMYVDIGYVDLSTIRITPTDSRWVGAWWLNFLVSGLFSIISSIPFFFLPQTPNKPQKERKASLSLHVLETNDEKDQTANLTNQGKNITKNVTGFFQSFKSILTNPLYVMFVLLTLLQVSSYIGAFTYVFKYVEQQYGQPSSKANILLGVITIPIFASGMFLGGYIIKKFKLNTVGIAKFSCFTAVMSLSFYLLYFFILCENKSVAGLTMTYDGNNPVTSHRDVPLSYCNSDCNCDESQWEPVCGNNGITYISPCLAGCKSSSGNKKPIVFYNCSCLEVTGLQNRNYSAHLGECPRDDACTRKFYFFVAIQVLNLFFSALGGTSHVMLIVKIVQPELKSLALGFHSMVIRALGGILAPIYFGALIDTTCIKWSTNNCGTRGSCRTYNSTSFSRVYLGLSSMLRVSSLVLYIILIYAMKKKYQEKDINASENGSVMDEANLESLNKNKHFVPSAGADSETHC

SMILES	CypA Kd (cyclophilin A (CypA))	CypB Kd (cyclophilin B (CypB))	CypF Kd (CypF)	IC50 [1]	IC50 [2]	IC50 [3]
C/C=C/C[C@@H](C)[C@@H](O)[C@H]1C(=O)N[C@@H](CC)C(=O)N(C)[C@H](C)C(=O)N(C)[C@@H]([C@H](C)CN2CCC3(COC3)C2)C(=O)N[C@@H](C(C)C)C(=O)N(C)[C@@H](CC(C)C)C(=O)N[C@@H](C)C(=O)N[C@H](C)C(=O)N(C)[C@@H](CC(C)C)C(=O)N(C)[C@@H](CC(C)C)C(=O)N(C)[C@@H](C(C)C)C(=O)N1C [Compound 2.5.33, 3-[D-Ala]-4-[(2S,3R)-3-methyl-2-(methylamino)-4-(2-oxa-6-azaspiro[3.4]octan-6-yl)butanoyl]-cyclosporin] (cyclo(A[dA][NMeL][NMeL][NMeV][MeBmt][Abu][dNMeA][X51]V[NMeL]))	1.1	0.8	0.0008 µM	0.046 µM	10.3 µM	2 µM
C/C=C/C[C@@H](C)[C@@H](O)[C@H]1C(=O)N[C@@H](CC)C(=O)N(C)[C@H](C)C(=O)N(C)[C@@H]([C@H](C)COCC(=O)N2CCN(C)CC2)C(=O)N[C@@H](C(C)C)C(=O)N(C)[C@@H](CC(C)C)C(=O)N[C@@H](C)C(=O)N[C@H](C)C(=O)N(C)[C@@H](CC(C)C)C(=O)N(C)[C@@H](CC(C)C)C(=O)N(C)[C@@H](C(C)C)C(=O)N1C [Compound 2.6.3, 3-[D-Ala]-4-[(2S,3S)-3-methyl-2-(methylamino)-4-(2-(4-methylpiperazin-1-yl)-2-oxoethoxy)butanoyl]-cyclosporin] (cyclo(A[dA][NMeL][NMeL][NMeV][MeBmt][Abu][dNMeA][X66]V[NMeL]))	1.5	0.8	0.0005 µM			9.4 µM
C/C=C/C[C@@H](C)[C@@H](O)[C@H]1C(=O)N[C@@H](CC)C(=O)N(C)[C@H](CC)C(=O)N(C)[C@@H]([C@H](C)COC)C(=O)N[C@@H](C(C)C)C(=O)N(C)[C@@H](CC(C)C)C(=O)N[C@@H](C)C(=O)N[C@H](C)C(=O)N(C)[C@@H](CC(C)C)C(=O)N(C)[C@@H](CC(C)C)C(=O)N(C)[C@@H](C(C)C)C(=O)N1C [Compound 3.1, 3-[(R)-2-(methylamino)butanoic acid]-4-[(2S,3S)-4-methoxy-3-methyl-2-(methylamino)butanoyl]-cyclosporin]	3.4	1.6	0.0019 µM			2.1 µM
C/C=C/C[C@@H](C)[C@@H](O)[C@H]1C(=O)N[C@@H](CC)C(=O)N(C)[C@H](C)C(=O)N(C)[C@@H]([C@H](C)CCC(=O)N2CCOCC2)C(=O)N[C@@H](C(C)C)C(=O)N(C)[C@@H](CC(C)C)C(=O)N[C@@H](C)C(=O)N[C@H](C)C(=O)N(C)[C@@H](CC(C)C)C(=O)N(C)[C@@H](CC(C)C)C(=O)N(C)[C@@H](C(C)C)C(=O)N1C [Compound 2.14.4, 3-[D-Ala]-4-[(2S,3R)-3-methyl-2-(methylamino)-6-morpholino-6-oxohexanoyl]-cyclosporin] (cyclo(A[dA][NMeL][NMeL][NMeV][MeBmt][Abu][dNMeA][X52]V[NMeL]))	2.1	1.5	0.0011 µM			4.8 µM
C/C=C/C[C@@H](C)[C@@H](O)[C@H]1C(=O)N[C@@H](CC)C(=O)N(C)[C@H](C)C(=O)N(C)[C@@H]([C@H](C)COCCN(C)CC(F)(F)F)C(=O)N[C@@H](C(C)C)C(=O)N(C)[C@@H](CC(C)C)C(=O)N[C@@H](C)C(=O)N[C@H](C)C(=O)N(C)[C@@H](CC(C)C)C(=O)N(C)[C@@H](CC(C)C)C(=O)N(C)[C@@H](C(C)C)C(=O)N1C [Compound 2.8.3, 3-[D-Ala]-4-[(2S,3S)-3-methyl-4-(2-(methyl(2,2,2-trifluoroethyl)amino)ethoxy)-2-(methylamino)butanoyl]-cyclosporin] (cyclo(A[dA][NMeL][NMeL][NMeV][MeBmt][Abu][dNMeA][X36]V[NMeL]))	4.4	3.3	0.0041 µM			1.9 µM
C/C=C/C[C@@H](C)[C@@H](O)[C@H]1C(=O)N[C@@H](CC)C(=O)N(C)[C@H](C)C(=O)N(C)[C@@H]([C@H](C)COCC(=O)N2CCN(C(C)C)CC2)C(=O)N[C@@H](C(C)C)C(=O)N(C)[C@@H](CC(C)C)C(=O)N[C@@H](C)C(=O)N[C@H](C)C(=O)N(C)[C@@H](CC(C)C)C(=O)N(C)[C@@H](CC(C)C)C(=O)N(C)[C@@H](C(C)C)C(=O)N1C [Compound 2.6.4, 3-[D-Ala]-4-[(2S,3S)-4-(2-(4-isopropylpiperazin-1-yl)-2-oxoethoxy)-3-methyl-2-(methylamino)butanoyl]-cyclosporin] (cyclo(A[dA][NMeL][NMeL][NMeV][MeBmt][Abu][dNMeA][X44]V[NMeL]))	1.4	1.1	0.0006 µM			8 µM
C/C=C/C[C@@H](C)[C@@H](O)[C@H]1C(=O)N[C@@H](CC)C(=O)N(C)[C@H](C)C(=O)N(C)[C@@H]([C@H](C)COCC(=O)N2CCNCC2)C(=O)N[C@@H](C(C)C)C(=O)N(C)[C@@H](CC(C)C)C(=O)N[C@@H](C)C(=O)N[C@H](C)C(=O)N(C)[C@@H](CC(C)C)C(=O)N(C)[C@@H](CC(C)C)C(=O)N(C)[C@@H](C(C)C)C(=O)N1C [Compound 2.6.1, 3-[D-Ala]-4-[(2S,3S)-3-methyl-2-(methylamino)-4-(2-oxo-2-(piperazin-1-yl)ethoxy)butanoyl]-cyclosporin] (cyclo(A[dA][NMeL][NMeL][NMeV][MeBmt][Abu][dNMeA][X40]V[NMeL]))	1.0	0.7	0.0004 µM			6.9 µM
C/C=C/C[C@@H](C)[C@@H](O)[C@H]1C(=O)N[C@@H](CC)C(=O)N(C)[C@H](C)C(=O)N(C)[C@@H]([C@H](C)CCCOC(=O)N(C)C2CCN(C)CC2)C(=O)N[C@@H](C(C)C)C(=O)N(C)[C@@H](CC(C)C)C(=O)N[C@@H](C)C(=O)N[C@H](C)C(=O)N(C)[C@@H](CC(C)C)C(=O)N(C)[C@@H](CC(C)C)C(=O)N(C)[C@@H](C(C)C)C(=O)N1C [Compound 2.19.9, 3-[D-Ala]-4-[(2S,3R)-3-methyl-6-((methyl(1-methylpiperidin-4-yl)carbamoyl)oxy)-2-(methylamino)hexanoyl]-cyclosporin] (cyclo(A[dA][NMeL][NMeL][NMeV][MeBmt][Abu][dNMeA][X42]V[NMeL]))	0.8	0.4	0.0004 µM			3.7 µM
C/C=C/C[C@@H](C)[C@@H](O)[C@H]1C(=O)N[C@@H](CC)C(=O)N(C)[C@H](C)C(=O)N(C)[C@@H]([C@H](C)COCCN2CCOC[C@@H]2C)C(=O)N[C@@H](C(C)C)C(=O)N(C)[C@@H](CC(C)C)C(=O)N[C@@H](C)C(=O)N[C@H](C)C(=O)N(C)[C@@H](CC(C)C)C(=O)N(C)[C@@H](CC(C)C)C(=O)N(C)[C@@H](C(C)C)C(=O)N1C [Compound 2.8.6, 3-[D-Ala]-4-[(2S,3S)-3-methyl-2-(methylamino)-4-(2-((S)-3-methylmorpholino)ethoxy)butanoyl]-cyclosporin] (cyclo(A[dA][NMeL][NMeL][NMeV][MeBmt][Abu][dNMeA][X82]V[NMeL]))	1.3	0.9	0.0008 µM	0.013 µM		4.8 µM
